# Measured values published in ChEMBL document CHEMBL5338717, “Discovery of novel PDE4 inhibitors targeting the M-pocket from natural mangostanin with improved safety for the treatment of Inflammatory Bowel Diseases” (Eur J Med Chem, 2022).
# The source made the active and inactive calls. No cut-off for these calls is given here.
# Columns and labels:
# [1] = target: T1, 3',5'-cyclic-AMP phosphodiesterase 4D (Homo sapiens, UniProt Q08499); assay: Inhibition of recombinant PDE4D2 (86 to 413 residues) (unknown origin) expressed in Escherichia coli BL21 using [3H]cAMP as substrate incubated for 15 mins by liquid scintillation method
# T1 sequence (Q08499 whole entry, the tested form may be a part): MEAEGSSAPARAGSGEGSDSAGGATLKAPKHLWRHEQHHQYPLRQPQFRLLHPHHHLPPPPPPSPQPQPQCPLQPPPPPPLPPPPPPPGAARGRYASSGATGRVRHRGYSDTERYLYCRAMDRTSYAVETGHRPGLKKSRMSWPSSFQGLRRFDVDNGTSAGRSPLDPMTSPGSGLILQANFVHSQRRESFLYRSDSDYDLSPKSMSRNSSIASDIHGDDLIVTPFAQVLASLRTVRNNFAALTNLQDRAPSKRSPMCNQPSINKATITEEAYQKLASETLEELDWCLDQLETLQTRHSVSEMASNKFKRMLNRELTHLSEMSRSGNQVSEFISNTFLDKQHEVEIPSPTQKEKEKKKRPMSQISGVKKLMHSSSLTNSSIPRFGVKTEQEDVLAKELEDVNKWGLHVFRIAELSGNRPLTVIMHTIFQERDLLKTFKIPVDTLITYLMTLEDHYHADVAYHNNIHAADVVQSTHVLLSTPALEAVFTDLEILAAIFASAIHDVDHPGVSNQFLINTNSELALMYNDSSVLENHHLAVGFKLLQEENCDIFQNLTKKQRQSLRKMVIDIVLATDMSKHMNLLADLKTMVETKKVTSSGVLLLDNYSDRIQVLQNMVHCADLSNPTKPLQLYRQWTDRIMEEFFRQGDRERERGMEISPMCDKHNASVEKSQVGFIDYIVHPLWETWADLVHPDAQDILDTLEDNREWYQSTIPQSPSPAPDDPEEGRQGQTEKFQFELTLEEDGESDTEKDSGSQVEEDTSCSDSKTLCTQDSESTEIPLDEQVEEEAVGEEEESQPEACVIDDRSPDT
# [2] = Metabolic stability in rat liver microsomes assessed as half life; assay type: ADME, Microsome
# Mus musculus [3] = assay: Anti-inflammatory bowel disease activity in DSS-induced inflammatory bowel disease C57BL/6 mouse model assessed as decrease in rectal bleeding by measuring disease activity index score at 25 mg/kg, iv BID and measured upto 8 days by Haem-occult test; assay type: functional, organism-based; details: time <= 8.0 day
# Mus musculus [4] = assay: Anti-inflammatory bowel disease activity in DSS-induced inflammatory bowel disease C57BL/6 mouse model assessed as decrease in IL-6 mRNA expression level in colon at 25 mg/kg, iv BID and measured after 8 days by real-time PCR analysis; assay type: functional, organism-based; details: time 8.0 day
# Mus musculus [5] = assay: Anti-inflammatory bowel disease activity in DSS-induced inflammatory bowel disease C57BL/6 mouse model assessed as increase in body weight at 25 mg/kg, iv BID and measured after 8 days […]; assay type: functional, organism-based; details: time 8.0 day
# Mus musculus [6] = assay: Anti-inflammatory bowel disease activity in DSS-induced inflammatory bowel disease C57BL/6 mouse model assessed as decrease in TNF-alpha mRNA expression level in colon at 25 mg/kg, iv BID and measured after 8 days by real-time PCR analysis; assay type: functional, organism-based; details: time 8.0 day
# [7] = target: T1, 3',5'-cyclic-AMP phosphodiesterase 4D; assay: Inhibition of PDE4D2 (unknown origin)
# Mus musculus [8] = assay: Anti-inflammatory bowel disease activity in DSS-induced inflammatory bowel disease C57BL/6 mouse model assessed as decrease in epithelial damage in colon at 25 mg/kg, iv BID and measured after 8 days by Haematoxylin and eosin staining based microscopy; assay type: functional, organism-based; details: time 8.0 day
# Mus musculus [9] = assay: Anti-inflammatory bowel disease activity in DSS-induced inflammatory bowel disease C57BL/6 mouse model assessed as decrease in IFN-gamma mRNA expression level in colon at 25 mg/kg, iv BID and measured after 8 days by real-time PCR analysis; assay type: functional, organism-based; details: time 8.0 day
# Mus musculus [10] = assay: Anti-inflammatory bowel disease activity in DSS-induced inflammatory bowel disease C57BL/6 mouse model assessed as decrease in mucosal ulceration in colon at 25 mg/kg, iv BID and measured after 8 days by Haematoxylin and eosin staining based microscopy; assay type: functional, organism-based; details: time 8.0 day
# Mus musculus [11] = assay: Anti-inflammatory bowel disease activity in DSS-induced inflammatory bowel disease C57BL/6 mouse model assessed as decrease in diarrhoea by measuring disease activity index score at 25 mg/kg, iv BID and measured upto 8 days; assay type: functional, organism-based; details: time <= 8.0 day
# Mus musculus [12] = assay: Anti-inflammatory bowel disease activity in DSS-induced inflammatory bowel disease C57BL/6 mouse model assessed as decrease in loss of crypt architecture in colon at 25 mg/kg, iv BID and measured after 8 days by Haematoxylin and eosin staining based microscopy; assay type: functional, organism-based; details: time 8.0 day
# Mus musculus [13] = assay: Anti-inflammatory bowel disease activity in DSS-induced inflammatory bowel disease C57BL/6 mouse model assessed as decrease in goblet cells in colon at 25 mg/kg, iv BID and measured after 8 days by Haematoxylin and eosin staining based microscopy; assay type: functional, organism-based; details: time 8.0 day
# Mus musculus [14] = assay: Anti-inflammatory bowel disease activity in DSS-induced inflammatory bowel disease C57BL/6 mouse assessed as decrease in neutrophil infiltration in colon at 25 mg/kg, iv BID and measured after 8 days by Haematoxylin and eosin staining based microscopy; assay type: functional, organism-based; details: time 8.0 day
# Mus musculus [15] = assay: Anti-inflammatory bowel disease activity in DSS-induced inflammatory bowel disease C57BL/6 mouse model assessed as decrease in body weight loss by measuring disease activity index score at 25 mg/kg, iv BID and measured upto 8 days; assay type: functional, organism-based; details: time <= 8.0 day
# Mus musculus [16] = assay: Anti-inflammatory bowel disease activity in DSS-induced inflammatory bowel disease C57BL/6 mouse model assessed as decrease in IL-10 mRNA expression level in colon at 25 mg/kg, iv BID and measured after 8 days by real-time PCR analysis; assay type: functional, organism-based; details: time 8.0 day
# [17] = Inhibition of PDE7 (unknown origin); design: species or system Homo sapiens
# Mus musculus [18] = assay: Anti-inflammatory bowel disease activity in DSS-induced inflammatory bowel disease C57BL/6 mouse model assessed as increase in colon length at 25 mg/kg, iv BID and measured upto 8 days; assay type: functional, organism-based; details: time <= 8.0 day
# [19] = Toxicity in twelve hrs fasted Beagle dog assessed as emesis at 1 mg/kg,po and measured upto 180 mins; assay type: organism-based, Canis lupus familiaris; details: in vivo, 3 h
SMILES,IC50 [1],half-life [2],further results
COc1c(OC(C)C)cc2oc3cc4c(c(OCc5ccncc5)c3c(=O)c2c1CC=C(C)C)C=CC(C)(C)O4,5.2 nM,78 min,
COc1c(OCc2ccccn2)cc2oc3cc4c(c(OCc5ccccn5)c3c(=O)c2c1CC=C(C)C)C=CC(C)(C)O4,6.5 nM,3 min,
COc1c(OCc2ccncc2)cc2oc3cc4c(c(OCc5ccncc5)c3c(=O)c2c1CC=C(C)C)C=CC(C)(C)O4,10.6 nM,16 min,
COc1c(OCc2cccc(F)c2)cc2oc3cc4c(c(OCc5ccccn5)c3c(=O)c2c1CC=C(C)C)C=CC(C)(C)O4,9.3 nM,,
COc1c(OCc2ccccc2)cc2oc3cc4c(c(OCc5ccncc5)c3c(=O)c2c1CC=C(C)C)C=CC(C)(C)O4,1.4 nM,315 min,
OCCN(CCO)c1nc(N2CCCCC2)c2nc(N(CCO)CCO)nc(N3CCCCC3)c2n1 [DIPYRIDAMOLE],,,Activity (Mus musculus [3]): Active; Activity (Mus musculus [4]): Active; Activity (Mus musculus [5]): inactive; Activity (Mus musculus [6]): Active; IC50 [7]: 2800 nM; Activity (Mus musculus [8]): Active; Activity (Mus musculus [9]): Active; Activity (Mus musculus [10]): Active; Activity (Mus musculus [11]): Active; Activity (Mus musculus [12]): Active; Activity (Mus musculus [13]): Active; Activity (Mus musculus [14]): Active; Activity (Mus musculus [15]): Active; Activity (Mus musculus [16]): Active; IC50 [17]: 600 nM; Activity (Mus musculus [18]): Active
CCOc1cc2oc3cc4c(c(OCc5ccncc5)c3c(=O)c2c(CC=C(C)C)c1OC)C=CC(C)(C)O4,10.2 nM,2.98 min,
COc1c(O)cc2oc3cc4c(c(OCc5ccccn5)c3c(=O)c2c1CC=C(C)C)C=CC(C)(C)O4,203 nM,0.9 min,
COc1c(OCc2ccc(F)cc2)cc2oc3cc4c(c(OCc5ccccn5)c3c(=O)c2c1CC=C(C)C)C=CC(C)(C)O4,20.2 nM,,
COc1c(O)cc2oc3cc4c(c(OCc5cccnc5)c3c(=O)c2c1CC=C(C)C)C=CC(C)(C)O4,> 1000 nM,,
COc1ccc(C2CNC(=O)C2)cc1OC1CCCC1 (stereo not drawn) [ROLIPRAM],,,Activity [19]: Toxic
COc1c(OCc2cccc(F)c2)cc2oc3cc4c(c(OCc5ccncc5)c3c(=O)c2c1CC=C(C)C)C=CC(C)(C)O4,7.8 nM,,
COc1c(O)cc2oc3cc4c(c(OCc5ccccc5)c3c(=O)c2c1CC=C(C)C)C=CC(C)(C)O4,> 1000 nM,,
COc1cc2oc3cc4c(c(OCc5ccncc5)c3c(=O)c2c(CC=C(C)C)c1OC)C=CC(C)(C)O4,11.7 nM,2.08 min,
COc1c(O)cc2oc3cc4c(c(O)c3c(=O)c2c1CC=C(C)C)C=CC(C)(C)O4 [MANGOSTANIN],,8.1 min,
COc1c(OCc2ccc(F)cc2)cc2oc3cc4c(c(OCc5ccncc5)c3c(=O)c2c1CC=C(C)C)C=CC(C)(C)O4,1.4 nM,33 min,
COc1c(OCc2ccc(F)cc2)cc2oc3cc4c(c(OCC5CCNCC5)c3c(=O)c2c1CC=C(C)C)C=CC(C)(C)O4,12.4 nM,,
COc1c(O)cc2oc3cc4c(c(OCc5ccncc5)c3c(=O)c2c1CC=C(C)C)C=CC(C)(C)O4,25 nM,6.7 min,
COc1c(OCc2ccc(F)cc2)cc2oc3cc4c(c(OCc5cccnc5)c3c(=O)c2c1CC=C(C)C)C=CC(C)(C)O4,8.2 nM,,
